# Laboratory results reported in a polymer gas permeability compilation.
CH4 permeability,CO2 permeability,N2 permeability,O2 permeability,H2 permeability,Compound
,2.7 Barrer,0.07 Barrer,0.49 Barrer,8 Barrer,*c1ccc(Oc2ccc(C(C)(C)c3ccc(Oc4ccc(N5C(=O)c6ccc(Oc7ccc8c(c7)C(=O)N(*)C8=O)cc6C5=O)cc4)cc3)cc2)cc1 (repeat unit)
0.88 Barrer,36.2 Barrer,1.89 Barrer,10.8 Barrer,102 Barrer,*c1cccc(N2C(=O)c3ccc(C(c4ccc5c(c4)C(=O)N(*)C5=O)(C(F)(F)F)C(F)(F)F)cc3C2=O)c1C (repeat unit)
0.163 Barrer,9.7 Barrer,0.419 Barrer,2.79 Barrer,35.5 Barrer,*c1cccc(N2C(=O)c3ccc(C(c4ccc5c(c4)C(=O)N(*)C5=O)(C(F)(F)F)C(F)(F)F)cc3C2=O)c1 (repeat unit)
2.5 Barrer,63 Barrer,2.2 Barrer,11 Barrer,85 Barrer,*c1cc(C)c(C)c(N2C(=O)c3ccc(Oc4cc(C(C)(C)C)ccc4Oc4ccc5c(c4)C(=O)N(*)C5=O)cc3C2=O)c1C (repeat unit)
0.18 Barrer,9.6 Barrer,0.27 Barrer,1.6 Barrer,19 Barrer,*c1ccc(Oc2ccc(N3C(=O)c4cc5c(cc4C3=O)S(=O)(=O)c3cc4c(cc3S5(=O)=O)C(=O)N(*)C4=O)cc2)cc1 (repeat unit)
0.279 Barrer,9.15 Barrer,0.563 Barrer,3.11 Barrer,30.6 Barrer,*c1ccc(Oc2ccc(C(c3ccc(Oc4ccc(N5C(=O)c6ccc(-c7ccc8c(c7)C(=O)N(*)C8=O)cc6C5=O)cc4C(F)(F)F)cc3)(C(F)(F)F)C(F)(F)F)cc2)c(C(F)(F)F)c1 (repeat unit)
0.944 Barrer,25.5 Barrer,1.2 Barrer,6 Barrer,,*Oc1ccc(S(=O)(=O)c2ccc(Oc3c(C)cc(-c4cc(C)c(*)c(C)c4C)c(C)c3C)cc2)cc1 (repeat unit)
,,0.021 Barrer,0.198 Barrer,4.68 Barrer,*c1ccc(Oc2ccc(N3C(=O)c4ccc(Sc5ccc6c(c5)C(=O)N(*)C6=O)cc4C3=O)cc2)cc1 (repeat unit)
,30 Barrer,1.5 Barrer,8.5 Barrer,,*Oc1ccc(S(=O)(=O)c2ccc(Oc3c(C)cc(C(C)(C)c4cc(C)c(*)c(C)c4)cc3C)cc2C(O)(C(F)(F)F)C(F)(F)F)c(C(O)(C(F)(F)F)C(F)(F)F)c1 (repeat unit)
,0.26 Barrer,,,2.56 Barrer,*c1ccc2c(c1)C(=O)N(c1ccc(Oc3ccc(N4C(=O)c5ccc(-c6nc7ccc(Cc8ccc9nc(*)oc(=O)c9c8)cc7c(=O)o6)cc5C4=O)cc3)cc1)C2=O (repeat unit)
,138 Barrer,5.2 Barrer,34 Barrer,,*c1ccc(-c2ccc(N3C(=O)c4ccc(C(c5ccc6c(c5)C(=O)N(*)C6=O)(C(F)(F)F)C(F)(F)F)cc4C3=O)c(N)c2)cc1N (repeat unit)
0.198 Barrer,8.75 Barrer,0.406 Barrer,2.51 Barrer,,*c1ccc(Cc2ccc(N3C(=O)c4ccc(C(c5ccc6c(c5)C(=O)N(*)C6=O)(C(F)(F)F)C(F)(F)F)cc4C3=O)c(C)c2)cc1C (repeat unit)
0.08 Barrer,9.9 Barrer,0.4 Barrer,2.6 Barrer,35 Barrer,*c1cc(C(c2ccc(O)c(N3C(=O)c4ccc(C(c5ccc6c(c5)C(=O)N(*)C6=O)(C(F)(F)F)C(F)(F)F)cc4C3=O)c2)(C(F)(F)F)C(F)(F)F)ccc1O (repeat unit)
4.6 Barrer,130 Barrer,5.5 Barrer,23 Barrer,206 Barrer,*c1cc2c(cc1O)C1(CC2(C)C)CC(C)(C)c2cc(N3C(=O)C4C5C=CC(C6C(=O)N(*)C(=O)C56)C4C3=O)c(O)cc21 (repeat unit)
0.34 Barrer,11.7 Barrer,0.73 Barrer,3.62 Barrer,47.3 Barrer,*c1ccc(Oc2ccc(C3(c4ccc(Oc5ccc(N6C(=O)c7ccc(C(c8ccc9c(c8)C(=O)N(*)C9=O)(C(F)(F)F)C(F)(F)F)cc7C6=O)c(C)c5)cc4)c4ccccc4-c4ccccc43)cc2)cc1C (repeat unit)
0.08 Barrer,3.55 Barrer,0.15 Barrer,0.92 Barrer,4.67 Barrer,*c1ccc2c(-c3c(OC(C)=O)ccc4cc(N5C(=O)c6ccc(C(=O)c7ccc8c(c7)C(=O)N(*)C8=O)cc6C5=O)ccc34)c(OC(C)=O)ccc2c1 (repeat unit)
,,1.02 Barrer,5.69 Barrer,47.1 Barrer,*c1c(C)cc(C)c(N2C(=O)c3ccc(S(=O)(=O)c4ccc5c(c4)C(=O)N(*)C5=O)cc3C2=O)c1C (repeat unit)
0.47 Barrer,20 Barrer,0.59 Barrer,3.5 Barrer,41 Barrer,*c1c(C)c(C)c(N2C(=O)c3ccc(Oc4cc(C)ccc4Oc4ccc5c(c4)C(=O)N(*)C5=O)cc3C2=O)c(C)c1C (repeat unit)
0.59 Barrer,24 Barrer,0.7 Barrer,,,*c1cc2c(cc1C)-c1cc(C)c(N3C(=O)c4cc5c(cc4C3=O)S(=O)(=O)c3cc4c(cc3S5(=O)=O)C(=O)N(*)C4=O)cc1S2(=O)=O (repeat unit)
,,2.63 Barrer,11.8 Barrer,108 Barrer,*c1c(C)c(C)c(N2C(=O)c3ccc(C(=O)c4ccc5c(c4)C(=O)N(*)C5=O)cc3C2=O)c(C)c1C (repeat unit)
0.0129 Barrer,0.542 Barrer,0.0203 Barrer,0.143 Barrer,,*c1ccc(Cc2ccc(N3C(=O)c4ccc(-c5ccc6c(c5)C(=O)N(*)C6=O)cc4C3=O)cc2F)c(F)c1 (repeat unit)

# Continued, compound first:
Compound,CH4 permeability,CO2 permeability,N2 permeability,O2 permeability,H2 permeability
*c1ccc(-c2ccc(Oc3ccc4c(c3)C3(CC4(C)C)CC(C)(C)c4ccc(Oc5ccc(-c6ccc(N7C(=O)c8ccc(Oc9ccc(C(C)(C)c%10ccc(Oc%11ccc%12c(c%11)C(=O)N(*)C%12=O)cc%10)cc9)cc8C7=O)cc6)cc5C(F)(F)F)cc43)c(C(F)(F)F)c2)cc1 (repeat unit),0.35 Barrer,23.9 Barrer,1.02 Barrer,9.92 Barrer,
*CC=C(C*)[Si](OC(C)C)(OC(C)C)OC(C)C (repeat unit),263 Barrer,1230 Barrer,109 Barrer,247 Barrer,
*=CC1CC(C=*)C2C(=O)N(C34CC5CC(CC(C5)C3)C4)C(=O)C12 (repeat unit),0.58 Barrer,8.39 Barrer,0.5 Barrer,1.59 Barrer,12.8 Barrer
*CC(*)c1ccc([Si](C)(C)CCCC(F)(F)F)cc1 (repeat unit),22 Barrer,284 Barrer,11.8 Barrer,38.1 Barrer,109 Barrer
*Oc1cc2c(cc1O*)C(C)(C)CC1(CC(C)(C)c3cc4c(cc3O1)Oc1c(C#N)c(*)c(*)c(C#N)c1O4)O2 (repeat unit),93 Barrer,1540 Barrer,61.5 Barrer,212 Barrer,750 Barrer
*/C=C/C1CC(*)CC1[Si](C)(C)C (repeat unit),17 Barrer,89 Barrer,7.2 Barrer,30 Barrer,140 Barrer
*CC(*)F (repeat unit),,0.0791 Barrer,,,0.35 Barrer
*c1c(C)cc(-c2cc(C)c(-n3c(=O)c4cc5oc6cc7c(cc6oc5cc4c3=O)C3(CC(C)(C)c4cc5oc6cc8c(=O)n(*)c(=O)c8cc6oc5cc43)CC7(C)C)c3ccccc23)c2ccccc12 (repeat unit),215 Barrer,2980 Barrer,130 Barrer,432 Barrer,1310 Barrer
*C(=C(*)c1ccc2c(c1)C1(CC1)c1ccccc1-2)c1ccc([Si](C)(C)C)cc1 (repeat unit),1500 Barrer,4100 Barrer,540 Barrer,1000 Barrer,1900 Barrer
*C(=C(*)c1ccc([Si](C)(C)CCCCCCCC)cc1)c1ccc(C(C)(C)C)cc1 (repeat unit),,100 Barrer,7.5 Barrer,26 Barrer,
*C(=C(*)c1ccc(C[Si](C)(C)C)cc1)c1ccccc1 (repeat unit),120 Barrer,640 Barrer,44 Barrer,140 Barrer,420 Barrer
*C(C)=C(*)c1ccccc1 (repeat unit),5.2 Barrer,174 Barrer,12.2 Barrer,36.8 Barrer,199 Barrer
*Oc1cc2c(cc1O*)C1(c3cc(C(C)(C)C)ccc3-2)c2cc(C(C)(C)C)ccc2-c2cc3c(cc21)Oc1c(C#N)c(*)c(*)c(C#N)c1O3 (repeat unit),1700 Barrer,13200 Barrer,815 Barrer,2310 Barrer,5150 Barrer
*C(C(=O)OC(C)C)C(*)C(=O)OC(C)CC (repeat unit),,,5 Barrer,12 Barrer,51 Barrer
*CC(*)O (repeat unit),,1.2e-06 Barrer,,7e-07 Barrer,
*CC(*)c1ccc(C(C)(C)C)cc1 (repeat unit),16.7 Barrer,140 Barrer,8.4 Barrer,35.5 Barrer,
*c1ccc(Oc2ccc(C(c3ccc(Oc4ccc(-n5c(=O)c6cc7c(=O)n(*)c(=O)c7cc6c5=O)cc4C(F)(F)F)cc3)(C(F)(F)F)C(F)(F)F)cc2)c(C(F)(F)F)c1 (repeat unit),0.937 Barrer,24.6 Barrer,1.5 Barrer,7.06 Barrer,50.4 Barrer
*O[Si](C)(C)CCCCCC[Si](*)(C)C (repeat unit),395 Barrer,1310 Barrer,,265 Barrer,
*Oc1c(C)cc(C(C)(C)c2cc(C)c(OC(=O)c3cccc(C(*)=O)c3)c(C)c2)cc1C (repeat unit),0.472 Barrer,12 Barrer,0.579 Barrer,3.26 Barrer,38.6 Barrer
